From patent publication US12228565B2, “Blood cell lysis compositions and uses thereof” (Instrumentation Laboratory Company, priority 2021, dated 2025) come the findings set out here.

One series deals with whole blood cells. As to conditions: after 1 to 2 seconds; composition of Table 2, surfactant 9-14%.
Series [1] can be described thus: Surface tension of surfactant. In kind it is physicochemical. From the text:
(§1) Surfactants used for lysing, including the secondary alcohol ethoxylates described herein, may lower surface tension in a liquid blood sample and induce foam formation in the blood sample as air is mixed into the blood sample. Foam is detrimental to optical absorbance measurements because it causes additional light scattering. In some implementations, surfactants for performing cell lysis in CO-Oximetry may reduce or minimize foam formation and/or produce foam that dissipates quickly prior to spectral measurements. […] (Celsius). […] Standard measurements of the foam height may be taken, for example, five minutes after addition of the surfactant to a water based solution. The foam height produced by a secondary alcohol ethoxylate may be measured, for example, using the Ross-Miles method.
(§2) Triton-X100 is a control (or reference) surfactant against which the secondary alcohol ethoxylate surfactants are compared. […] In Table 1 below, […], which is a property of the surfactant that indicates/relates to the effectiveness of the material as a surfactant.

Series [2] is described as follows: Foam height of surfactant in water based solution (Ross-Miles method). In kind it is physicochemical.
From the text: as §1, §2

From the text for whole blood cells: The blood sample analyzed by CO-Oximeter system 5 may be a whole blood sample that is lysed using one or more of the blood cell lysing compositions described herein. More specifically, in example CO-Oximeter 5, a blood cell lysis composition and a blood sample are introduced into a mixing chamber—e.g., through a mixing valve—in an optical cell 7. Movement of the blood sample and blood cell lysis composition through the mixing chamber under simultaneous actuation implemented by a solenoid causes the blood sample and lysis composition to simultaneously mix and lyse the red blood cells. The resulting mixture constitutes a lysed blood sample that is usable to obtain optical absorbance measurements by the CO-Oximeter with a reduction or elimination of scattering effects caused by red blood cells.
In an example testing procedure, secondary alcohol ethoxylate1 and secondary alcohol ethoxylate2 were included in the example blood cell lysis composition described with respect to Table 2 below at concentrations of 9% to 14% and tested in a CO-Oximetry system of the type described herein.

In the case of “Tergitol™ Type 15-S-9 [secondary alcohol ethoxylate2]”, the “lysis of whole blood cells” value with whole blood cells is recorded as “about 100%”. Further, in series [1], the “Surface Tension (1% actives, 25° C.)” value is given as 30 dynes/cm. For the same substance, in series [2], the “Foam Height—5 minutes (0.1 weight % actives)” value was 43 mm and the “Foam height—Initial (0.1 weight % actives)” value is 124 mm.

For the substance Triton X-100 [reference compound], the “Surface Tension (1% actives, 25° C.)” value in series [1] is 33 dynes/ dynes/cm. Also, in series [2], the “Foam Height—5 minutes (0.1 weight % actives)” value was determined as 107 mm and the “Foam height—Initial (0.1 weight % actives)” value came to 128 mm.
